Values quoted from earlier work in patent publication US7563779B2, “L-ergothioneine, milk thistle, and S-adenosylmethionine for the prevention, treatment and repair of liver damage” (Nutramax Laboratories, priority 1998, dated 2009).

Experiments:
[1] = test system: lipid peroxidation in liver tissue; conditions: exogenous L-ergothioneine, liver tissue of rats
[2] = test system: lipid peroxide formation in mouse liver homogenate; conditions: FIG. 5
liver lipid accumulation = conditions: rats chronically intoxicated with ethanol
[3] = test system: liver nodules, pre-neoplastic lesions and hepatocellular carcinomas; conditions: administration of SAMe

| SMILES | lipid peroxidation by toxic compounds [1] | LPO formation [2] | decomposition of existing LPO [2] | lipid accumulation (liver lipid accumulation) | amount of early reversible nodules [3] | development of late pre-neoplastic lesions and hepatocellular carcinomas [3] |
| --- | --- | --- | --- | --- | --- | --- |
| C[N+](C)(C)[C@@H](Cc1c[nH]c(=S)[nH]1)C(=O)[O-] [L-ergothioneine] | prevent lipid peroxidation | inhibited LPO formation | enhanced the decomposition of existing LPO |  |  |  |
| C[S+](CC[C@H](N)C(=O)O)C[C@H]1O[C@@H](n2cnc3c(N)ncnc32)[C@H](O)[C@@H]1O (stereo partly drawn) [SAMe, S-adenosylmethionine] |  |  |  | decrease lipid accumulation | fall in the amount of early reversible nodules | prevention of the development of late pre-neoplastic lesions and hepatocellular carcinomas |
